Results on five compounds are retold here after ChEMBL document CHEMBL3045382, “Synthesis of a ligandquencher conjugate for the ligand binding study of the aryl hydrocarbon receptor using a FRET assay” (Med Chem Res, 2012).

Series [1] concerns the target T1, Aryl hydrocarbon receptor (Rattus norvegicus, UniProt P41738).
T1 sequence (P41738 whole entry): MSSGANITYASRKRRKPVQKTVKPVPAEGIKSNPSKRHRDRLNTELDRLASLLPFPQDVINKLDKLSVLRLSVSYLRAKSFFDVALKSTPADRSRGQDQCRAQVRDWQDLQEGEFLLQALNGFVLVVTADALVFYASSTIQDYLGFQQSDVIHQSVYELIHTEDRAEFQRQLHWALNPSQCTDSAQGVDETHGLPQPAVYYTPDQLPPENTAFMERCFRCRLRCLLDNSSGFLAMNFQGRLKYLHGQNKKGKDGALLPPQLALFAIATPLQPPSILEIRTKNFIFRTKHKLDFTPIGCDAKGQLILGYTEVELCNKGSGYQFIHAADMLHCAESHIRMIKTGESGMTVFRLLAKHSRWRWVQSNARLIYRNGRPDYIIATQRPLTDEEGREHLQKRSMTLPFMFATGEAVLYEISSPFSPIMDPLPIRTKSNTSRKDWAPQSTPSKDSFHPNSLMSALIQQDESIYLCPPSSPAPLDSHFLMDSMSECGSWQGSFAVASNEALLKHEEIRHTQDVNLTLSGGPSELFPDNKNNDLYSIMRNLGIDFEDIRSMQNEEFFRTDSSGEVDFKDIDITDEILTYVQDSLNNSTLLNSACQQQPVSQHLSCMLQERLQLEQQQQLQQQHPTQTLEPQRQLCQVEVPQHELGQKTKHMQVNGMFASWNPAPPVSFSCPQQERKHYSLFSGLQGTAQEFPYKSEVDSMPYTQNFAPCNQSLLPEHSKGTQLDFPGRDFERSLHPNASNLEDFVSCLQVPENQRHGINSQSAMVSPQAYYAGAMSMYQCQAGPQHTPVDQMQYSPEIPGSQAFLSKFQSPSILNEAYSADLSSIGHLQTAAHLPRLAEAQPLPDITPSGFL
As to the kind of experiment: Agonist activity at DRE-driven GFP-fused AhR ligand binding domain in rat H4G1.1c3 cells assessed as induction of DRE-driven GFP expression at 10 uM after 48 hr by fluorescence assay. Type of series: cell-based.

In series [2] the target is T2, Aryl hydrocarbon receptor (Homo sapiens, UniProt P35869).
T2 sequence (P35869 whole entry): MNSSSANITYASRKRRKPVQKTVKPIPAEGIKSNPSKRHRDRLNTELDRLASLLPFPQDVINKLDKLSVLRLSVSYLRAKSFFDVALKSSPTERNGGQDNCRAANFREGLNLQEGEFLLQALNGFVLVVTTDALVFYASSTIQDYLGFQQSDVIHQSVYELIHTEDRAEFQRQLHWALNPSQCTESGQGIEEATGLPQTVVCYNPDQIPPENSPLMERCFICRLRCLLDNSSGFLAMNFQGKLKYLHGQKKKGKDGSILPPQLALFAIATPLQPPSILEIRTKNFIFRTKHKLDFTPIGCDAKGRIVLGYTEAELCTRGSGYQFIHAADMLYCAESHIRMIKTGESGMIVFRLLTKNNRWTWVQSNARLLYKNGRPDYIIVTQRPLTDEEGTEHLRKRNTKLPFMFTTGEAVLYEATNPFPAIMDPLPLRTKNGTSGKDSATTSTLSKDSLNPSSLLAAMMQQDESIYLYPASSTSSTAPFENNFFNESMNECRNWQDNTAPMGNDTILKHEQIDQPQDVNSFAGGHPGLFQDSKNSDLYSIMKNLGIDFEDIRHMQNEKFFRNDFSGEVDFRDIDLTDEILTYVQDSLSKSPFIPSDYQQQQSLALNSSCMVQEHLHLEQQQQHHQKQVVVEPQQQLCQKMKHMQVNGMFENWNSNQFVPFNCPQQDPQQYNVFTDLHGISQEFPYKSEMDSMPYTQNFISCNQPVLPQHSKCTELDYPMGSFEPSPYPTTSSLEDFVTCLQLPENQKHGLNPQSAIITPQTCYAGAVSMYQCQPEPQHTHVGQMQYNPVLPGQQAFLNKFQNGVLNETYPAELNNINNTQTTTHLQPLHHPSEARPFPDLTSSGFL
Description: Binding affinity to aryl hydrocarbon receptor in Homo sapiens (human) Hep3B cells assessed as upregulation of DRE-driven luciferase expression at 10 uM after 6 hr by Western blot analysis relative to control. The conditions noted are these: Hep3B cells with DRE-driven luciferase reporter, read-out: FC. Type of series: cell-based, Hep 3B2.

Series [3] has as its target T2, Aryl hydrocarbon receptor. Description: Competitive binding affinity to full length N-terminal GFP-fused Homo sapiens (human) aryl hydrocarbon receptor ligand binding domain (848 amino acid residues) expressed in baculovirus infected Sf9 cells assessed as reversal of betaNFQ-mediated fluorescence quenching at 5 uM measured at 5 min by fluorescence microscopic analysis. The conditions noted are these: sf9, 5 min.

The target in series [4] is T2, Aryl hydrocarbon receptor. Description: Competitive binding affinity to full length N-terminal GFP-fused Homo sapiens (human) aryl hydrocarbon receptor ligand binding domain (848 amino acid residues) expressed in baculovirus infected Sf9 cells assessed as reversal of 4-((4-(dimethylamino)phenyl)diazenyl)-N-(2-(2-(2-(2-hydroxyethoxy)ethoxy)ethoxy)ethyl)benzamide4-((4-(dimethylamino)phenyl)diazenyl)-N-(2-(2-(2-(2-hydroxyethoxy)ethoxy)ethoxy)ethyl)benzamide-mediated fluorescence quenching at 5 uM measured at 5 min by fluorescence microscopic analysis. Conditions: sf9, 5 min; call rule not given here.

Series [5] deals with T2, Aryl hydrocarbon receptor. As to the kind of experiment: Binding affinity to full length N-terminal GFP-fused Homo sapiens (human) aryl hydrocarbon receptor ligand binding domain (848 amino acid residues) expressed in baculovirus infected Sf9 cells assessed as fluorescence quenching at 10 uM after 5 min by fluorescence microscopic analysis. The conditions noted are these: sf9, 5 min.

Series [6] addresses T2, Aryl hydrocarbon receptor. Description: Binding affinity to full length N-terminal GFP-fused Homo sapiens (human) aryl hydrocarbon receptor ligand binding domain (848 amino acid residues) expressed in baculovirus infected Sf9 cells assessed as fluorescence quenching at 10 uM after 10 min by fluorescence microscopic analysis. The conditions noted are these: sf9, 10 min.
Series [7] deals with T1, Aryl hydrocarbon receptor. As to the kind of experiment: Partial agonist activity at DRE-driven GFP-fused AhR ligand binding domain in rat H4G1.1c3 cells assessed as induction of DRE-driven GFP expression at 50 uM after 48 hr by fluorescence assay. Type of series: cell-based.
The target of series [8] is T2, Aryl hydrocarbon receptor. Description: Competitive binding affinity to aryl hydrocarbon receptor in Homo sapiens (human) Hep3B cells assessed as effect on betaNF-mediated DRE-driven luciferase expression at 10 uM after 6 hr by Western blot analysis relative to control. Type of series: cell-based. Conditions: hep 3b2, 6 h. For orientation: A western blot detects proteins with antibodies after separation by electrophoresis.

Series [9] has as its target T2, Aryl hydrocarbon receptor. Description: Binding affinity to aryl hydrocarbon receptor in Homo sapiens (human) Hep3B cells assessed as upregulation of DRE-driven luciferase expression at 10 uM after 6 hr by Western blot analysis. Type of series: cell-based. Conditions: hep 3b2, 6 h.
Series [10] addresses T2, Aryl hydrocarbon receptor. Description: Competitive binding affinity to aryl hydrocarbon receptor in Homo sapiens (human) Hep3B cells assessed as supression of betaNF-mediated DRE-driven luciferase expression at 10 uM after 6 hr by Western blot analysis relative to control. Type of series: cell-based. Conditions: hep 3b2, 6 h.
A short description of series [11]: Cytotoxicity against rat H4G1.1c3 cells at 10 to 50 uM after 24 hr. Type of series: cell-based.
The target in series [12] is T2, Aryl hydrocarbon receptor. As to the kind of experiment: Binding affinity to full length N-terminal GFP-fused Homo sapiens (human) aryl hydrocarbon receptor ligand binding domain (848 amino acid residues) expressed in baculovirus infected Sf9 cells assessed as fluorescence quenching at 10 uM up to 30 min by fluorescence microscopic analysis. Conditions: sf9, 0.5 h.

`O=c1cc(-c2ccccc2)oc2ccc3ccccc3c12` [BETA-NAPHTHOFLAVONE]: in series [1], the outcome was Active. The fold induction at 6 h, 10 µM in [2] stood at 75.
In the case of `Cc1ccc2cc3c(ccc4ccccc43)c3c2c1CC3` [3-METHYLCHOLANTHRENE], the Activity entry was “Active” in series [3] and “Not Active” in series [4].
As to `CN(C)c1ccc(/N=N/c2ccc(C(=O)NCCOCCOCCOCCO)cc2)cc1`, the Activity in series [5] is 13%; in series [6], 16%; in [7] it was “Not Active”; in series [8], “Not Active”; in series [9] it was “Not Active”.
For `CN(C)c1ccc(/N=N/c2ccc(C(=O)NCCOCCOCCOCCOCc3ccc(-c4cc(=O)c5c(ccc6ccccc65)o4)cc3)cc2)cc1`, the Activity was 18% in series [5]; 24% in [6]; “Non-toxic” in series [11]; “Active” in series [7]; 29% in series [12]. For the same compound, in series [10], the “fold change (FC)” value amounted to 23. Further, in series [2], the fold induction at 6 h, 10 µM is 14.
With `CN(C)c1ccc(/N=N/c2ccc(C(=O)NCCOCCOCCOCCOCCOCCOCCOCCOCc3ccc(-c4cc(=O)c5c(ccc6ccccc65)o4)cc3)cc2)cc1`, in [11], the Activity result was “Toxic”.
